{
  "source": "patent US20040029965A1",
  "about": "“Formulations for reducing or eliminating toxicity of enviromental hormones containing ursodeoxycholic acid” (priority 2000, published 2004)",
  "key": {"C57B1/6J mice [1]": {"test_system": "C57B1/6J mice", "assay": "Organ weights (liver, kidneys, testes, epididymides) of mice after a single subcutaneous injection of TCDD", "type": "in vivo", "experimental": "Male C57B1/6J mice of 5 weeks old having the average weight of 18-22 g which had been bred in CRJ (Charles River in Japan) were purchased and used in this example as experimental animals. Those mice were acclimated under the constant breeding condition, i.e. the temperature of 24±1° C., the humidity of 60±10% and the light and darkness cycle of 12 hours, for one week and thereafter, utilized in the experiment.\n(§1) 2,3,7,8-tetrachlorodibenzo-p-dioxin (TCDD) dissolved in toluene (purity of 95% or more as a result of gas chromatography analysis), manufactured by Chem. Services Inc. in USA, was volatilized with nitrogen to obtain powder. The obtained powder was dissolved in a mixed solvent containing acetone and corn oil with a volume ratio of 1:6. The resulting solution each containing 110, 27.5 and 6.9 μg/kg of TCDD was subcutaneously injected to mice at a volume of 5 ml per body weight. […] The mice were supplied with the feed from 10 days before (pre-administration) to 60 days after administration of TCDD (post-administration).\n(§2) Upon completion of the experiment for 60 days, the experimental animals were fasted for 24 hours and anesthetized with ether. Then, they were abdominally incised and blood was gathered from abdominal vena cava. They were sacrificed by the release of blood. Liver, kidneys, testes and epididymides were extracted and all the extracted organs were weighed. Only the testes were separately kept and observed under optical and electron microscopes. For biochemical finding test, serum was separated from blood with a centrifuge and the separated serum was analyzed with an automated blood biochemical analyzer, Dimension (Dupont, USA). Blood was put to another blood gathering bottle and then, analyzed with an automated blood cell analyzer, Celldyn (Abbott, USA).\nThe results are expressed as Mean±Standard Deviation values. For statistical analysis of the body weight, feed and water uptake, biochemical findings, hematological findings and the weight of organ in an acute toxicity test, verification was performed by one way analysis of variance (ANOVA) in case of equal distribution. In case significance was recognized in ANOVA, the Student's t-test was performed in the levels of p<0.05 and p<0.01.\nThe organs, i.e. liver, kidneys, testes and epididymides, were weighed and the results are shown in the following."}, "C57B1/6J mice [2]": {"test_system": "C57B1/6J mice", "assay": "Optical microscopy of testes (histopathological findings)", "type": "in vivo", "experimental": "as §1, §2\nThe extracted testes were fixed in 10% neutralized formalin buffer for 24 hours and washed with the flowing water. It was subsequently dehydrated with ethanol and cleared with xylene and then, embedded with paraffin. It was sectioned with microtome (microm is HM 440E) to a thickness of 2-3 μm and then, double stained with hematoxylin and eosin to observe under an optical microscope."}, "[3]": {"conditions": "TCDD 27.5 μg/kg + UDCA 0.125 wt %"}, "[4]": {"conditions": "TCDD 27.5 μg/kg + UDCA 0.25 wt %"}, "[5]": {"conditions": "TCDD 27.5 μg/kg + UDCA 0.5 wt %"}, "[6]": {"conditions": "TCDD 110.0 μg/kg + UDCA 0.125 wt %"}, "[7]": {"conditions": "TCDD 110.0 μg/kg + UDCA 0.25 wt %"}, "[8]": {"conditions": "TCDD 110.0 μg/kg + UDCA 0.5 wt %"}},
  "data": [
    {"smiles": "C[C@H](CCC(=O)O)[C@H]1CC[C@H]2[C@@H]3[C@@H](O)C[C@@H]4C[C@H](O)CC[C@]4(C)[C@H]3CC[C@]12C", "note": "[UDCA, 3α, 7β-dihydroxy-5β-cholanoic acid]", "values": [
      {"measurement": "Liver Relative weight", "setting": "C57B1/6J mice [1]; [3]", "result": "4.832 ± 0.327", "unit": "%"},
      {"measurement": "Liver Weight", "setting": "C57B1/6J mice [1]; [3]", "result": "1.187 ± 0.086", "unit": "g"},
      {"measurement": "Right epididymis Relative weight", "setting": "C57B1/6J mice [1]; [3]", "result": "0.105 ± 0.015", "unit": "%"},
      {"measurement": "Right epididymis Weight", "setting": "C57B1/6J mice [1]; [3]", "result": "0.026 ± 0.003", "unit": "g"},
      {"measurement": "Right kidney Relative weight", "setting": "C57B1/6J mice [1]; [3]", "result": "0.489 ± 0.055", "unit": "%"},
      {"measurement": "Right kidney Weight", "setting": "C57B1/6J mice [1]; [3]", "result": "0.120 ± 0.013", "unit": "g"},
      {"measurement": "Right testis Relative weight", "setting": "C57B1/6J mice [1]; [3]", "result": "0.285 ± 0.016", "unit": "%"},
      {"measurement": "Right testis Weight", "setting": "C57B1/6J mice [1]; [3]", "result": "0.070 ± 0.003", "unit": "g"},
      {"measurement": "Left epididymis Relative weight", "setting": "C57B1/6J mice [1]; [4]", "result": "0.120 ± 0.018", "unit": "%"},
      {"measurement": "Left epididymis Weight", "setting": "C57B1/6J mice [1]; [4]", "result": "0.029 ± 0.003", "unit": "g"},
      {"measurement": "Left kidney Relative weight", "setting": "C57B1/6J mice [1]; [4]", "result": "0.508 ± 0.038", "unit": "%"},
      {"measurement": "Left kidney Weight", "setting": "C57B1/6J mice [1]; [4]", "result": "0.125 ± 0.010", "unit": "g"},
      {"measurement": "Left testis Relative weight", "setting": "C57B1/6J mice [1]; [4]", "result": "0.293 ± 0.032", "unit": "%"},
      {"measurement": "Left testis Weight", "setting": "C57B1/6J mice [1]; [4]", "result": "0.072 ± 0.007", "unit": "g"},
      {"measurement": "Liver Relative weight", "setting": "C57B1/6J mice [1]; [4]", "result": "4.428 ± 0.198", "unit": "%"},
      {"measurement": "Liver Weight", "setting": "C57B1/6J mice [1]; [4]", "result": "1.088 ± 0.030", "unit": "g"},
      {"measurement": "Right epididymis Relative weight", "setting": "C57B1/6J mice [1]; [4]", "result": "0.124 ± 0.020", "unit": "%"},
      {"measurement": "Right epididymis Weight", "setting": "C57B1/6J mice [1]; [4]", "result": "0.030 ± 0.005", "unit": "g"},
      {"measurement": "Right kidney Relative weight", "setting": "C57B1/6J mice [1]; [4]", "result": "0.508 ± 0.029", "unit": "%"},
      {"measurement": "Right kidney Weight", "setting": "C57B1/6J mice [1]; [4]", "result": "0.125 ± 0.007", "unit": "g"},
      {"measurement": "Right testis Relative weight", "setting": "C57B1/6J mice [1]; [4]", "result": "0.290 ± 0.030", "unit": "%"},
      {"measurement": "Right testis Weight", "setting": "C57B1/6J mice [1]; [4]", "result": "0.071 ± 0.007", "unit": "g"},
      {"measurement": "Left epididymis Relative weight", "setting": "C57B1/6J mice [1]; [5]", "result": "0.115 ± 0.015", "unit": "%"},
      {"measurement": "Left epididymis Weight", "setting": "C57B1/6J mice [1]; [5]", "result": "0.025 ± 0.004", "unit": "g"},
      {"measurement": "Left kidney Relative weight", "setting": "C57B1/6J mice [1]; [5]", "result": "0.539 ± 0.040", "unit": "%"},
      {"measurement": "Left kidney Weight", "setting": "C57B1/6J mice [1]; [5]", "result": "0.119 ± 0.011", "unit": "g"},
      {"measurement": "Left testis Relative weight", "setting": "C57B1/6J mice [1]; [5]", "result": "0.304 ± 0.040", "unit": "%"},
      {"measurement": "Left testis Weight", "setting": "C57B1/6J mice [1]; [5]", "result": "0.067 ± 0.011", "unit": "g"},
      {"measurement": "Liver Relative weight", "setting": "C57B1/6J mice [1]; [5]", "result": "4.773 ± 0.250", "unit": "%"},
      {"measurement": "Liver Weight", "setting": "C57B1/6J mice [1]; [5]", "result": "1.057 ± 0.069", "unit": "g"},
      {"measurement": "Right epididymis Relative weight", "setting": "C57B1/6J mice [1]; [5]", "result": "0.132 ± 0.041", "unit": "%"},
      {"measurement": "Right epididymis Weight", "setting": "C57B1/6J mice [1]; [5]", "result": "0.029 ± 0.011", "unit": "g"},
      {"measurement": "Right kidney Relative weight", "setting": "C57B1/6J mice [1]; [5]", "result": "0.538 ± 0.045", "unit": "%"},
      {"measurement": "Right kidney Weight", "setting": "C57B1/6J mice [1]; [5]", "result": "0.119 ± 0.009", "unit": "g"},
      {"measurement": "Right testis Relative weight", "setting": "C57B1/6J mice [1]; [5]", "result": "0.301 ± 0.030", "unit": "%"},
      {"measurement": "Right testis Weight", "setting": "C57B1/6J mice [1]; [5]", "result": "0.067 ± 0.007", "unit": "g"},
      {"measurement": "Liver Relative weight", "setting": "C57B1/6J mice [1]; [6]", "result": 5.118, "unit": "%"},
      {"measurement": "Liver Weight", "setting": "C57B1/6J mice [1]; [6]", "result": 0.8153, "unit": "g"},
      {"measurement": "Left epididymis Relative weight", "setting": "C57B1/6J mice [1]; [7]", "result": 0.122, "unit": "%"},
      {"measurement": "Left epididymis Weight", "setting": "C57B1/6J mice [1]; [7]", "result": 0.0195, "unit": "g"},
      {"measurement": "Left kidney Relative weight", "setting": "C57B1/6J mice [1]; [7]", "result": 0.6711, "unit": "%"},
      {"measurement": "Left kidney Weight", "setting": "C57B1/6J mice [1]; [7]", "result": 0.1069, "unit": "g"},
      {"measurement": "Left testis Relative weight", "setting": "C57B1/6J mice [1]; [7]", "result": 0.2153, "unit": "%"},
      {"measurement": "Left testis Weight", "setting": "C57B1/6J mice [1]; [7]", "result": 0.343, "unit": "g"},
      {"measurement": "Liver Relative weight", "setting": "C57B1/6J mice [1]; [7]", "result": "8.600 ± 3.276", "unit": "%"},
      {"measurement": "Liver Weight", "setting": "C57B1/6J mice [1]; [7]", "result": "1.379 ± 0.327", "unit": "g"},
      {"measurement": "Right epididymis Relative weight", "setting": "C57B1/6J mice [1]; [7]", "result": 0.080, "unit": "%"},
      {"measurement": "Right epididymis Weight", "setting": "C57B1/6J mice [1]; [7]", "result": 0.0128, "unit": "g"},
      {"measurement": "Right kidney Relative weight", "setting": "C57B1/6J mice [1]; [7]", "result": 0.6045, "unit": "%"},
      {"measurement": "Right kidney Weight", "setting": "C57B1/6J mice [1]; [7]", "result": 0.0963, "unit": "g"},
      {"measurement": "Right testis Relative weight", "setting": "C57B1/6J mice [1]; [7]", "result": 0.2279, "unit": "%"},
      {"measurement": "Left epididymis Relative weight", "setting": "C57B1/6J mice [1]; [8]", "result": "0.114 ± 0.025", "unit": "%"},
      {"measurement": "Left epididymis Weight", "setting": "C57B1/6J mice [1]; [8]", "result": "0.021 ± 0.007", "unit": "g"},
      {"measurement": "Left kidney Relative weight", "setting": "C57B1/6J mice [1]; [8]", "result": "0.704 ± 0.199", "unit": "%"},
      {"measurement": "Left kidney Weight", "setting": "C57B1/6J mice [1]; [8]", "result": "0.121 ± 0.022", "unit": "g"},
      {"measurement": "Left testis Relative weight", "setting": "C57B1/6J mice [1]; [8]", "result": "0.316 ± 0.074", "unit": "%"},
      {"measurement": "Left testis Weight", "setting": "C57B1/6J mice [1]; [8]", "result": "0.057 ± 0.019", "unit": "g"},
      {"measurement": "Right epididymis Relative weight", "setting": "C57B1/6J mice [1]; [8]", "result": "0.127 ± 0.024", "unit": "%"},
      {"measurement": "Right epididymis Weight", "setting": "C57B1/6J mice [1]; [8]", "result": "0.024 ± 0.009", "unit": "g"},
      {"measurement": "Right kidney Relative weight", "setting": "C57B1/6J mice [1]; [8]", "result": "0.659 ± 0.133", "unit": "%"},
      {"measurement": "Right kidney Weight", "setting": "C57B1/6J mice [1]; [8]", "result": "0.113 ± 0.010", "unit": "g"},
      {"measurement": "Right testis Relative weight", "setting": "C57B1/6J mice [1]; [8]", "result": "0.314 ± 0.067", "unit": "%"},
      {"measurement": "Right testis Weight", "setting": "C57B1/6J mice [1]; [8]", "result": "0.057 ± 0.019", "unit": "g"},
      {"measurement": "seminiferous tubules, optical microphotograph", "setting": "C57B1/6J mice [2]; TCDD 27.5 μg/kg + 0.5% by weight of UDCA, FIG. 3", "result": "normal seminiferous tubules were observed"},
      {"measurement": "histopathological findings of testes under an optical microscope", "setting": "C57B1/6J mice [2]; group exposed to UDCA (with TCDD)", "result": "seminiferous tubules were found to have the similar shape to that of the solvent control"}
    ]}
  ]
}
